Reference: patent US9211310B2, “Use of a Chinese medicine composition in preparing medicaments for treating secondary prevention of myocardial infarction” (TASLY PHARMACEUTICAL GROUP CO., LTD, priority 2010, dated 2015)

System: patients after acute myocardial infarction
Assay: Life quality, Seattle Angina Questionnaire (SAQ), same clinical trial
Assay type: in vivo, human
Conditions: FAS; 1 month after treatment
Text: 3508 patients who were in accordance with the diagnostic standards of AMI for 28 days to 2 years and differentiated as Qi deficiency and blood stagnation syndrome by TCM were studied. 0.5 g Chinese medicine composition prepared by the method of EXAMPLE 1 (Coded as QSYQ) was administrated half an hour after meal, 3 times per day.
There were 19 questions in the Seattle angina questionnaire (SAQ), including 5 parts: physical limitation (PL), anginal stability (AS), anginal frequency (AF), treatment satisfaction (TS) and disease perception (DP). After being given necessary explanation by doctors, the questions were answered independently by patients.
They included the overall survival time, angina pectoris score, TCM symptom score and life quality score, where angina pectoris score, TCM symptom score and life quality score were evaluated at randomization, in 1st, 3rd, 6th, 9th, 12th month after treatment and 18th month after follow-up.
All evaluation results of SAQ were described during the period of observation, and Wilcoxon rank sum test was used for inter-group comparison.
The evaluation results in the SAQ were depicted in different observations, and inter-group comparison was tested by Wilcoxon Rank-sum test.

SMILES: CC(=O)Oc1ccccc1C(=O)O [Control group, aspirine]
- 8th question: Highly satisfied, patients (%): (17.37%)
- 8th question: Mostly dissatisfied, patients (%): (4.07%)
- 8th question: Mostly satisfied, patients (%): (50.29%)
- 8th question: Partly satisfied, patients (%): (27.92%)
- 9th question: Few, patients (%): (26.78%)
- 9th question: Mild, patients (%): (36.07%)
- 9th question: Moderate, patients (%): (18.81%)
- 9th question: Severe, patients (%): (2.24%)
- 9th question: Uneffective, patients (%): (16.11%)
- 10th question: Dissatisfied, patients (%): (22.71%)
- 10th question: Highly satisfied, patients (%): (4.07%)
- 10th question: Mostly dissatisfied, patients (%): (22.94%)
- 10th question: Mostly satisfied, patients (%): (20.70%)
- 10th question: Partly satisfied, patients (%): (29.59%)
- 11th question: Continuously worried, patients (%): (6.71%)
- 11th question: No worried, patients (%): (4.70%)
- 11th question: Occasionally worried, patients (%): (40.94%)
- 11th question: Often worried, patients (%): (20.93%)
- 11th question: Seldom worried, patients (%): (26.72%)
- SAQ 4th question, 1-2 times per week: % of patients: (17.55%)
- SAQ 4th question, 1-2 times per week: number of patients: 306
- SAQ 4th question, 1-3 times per day: % of patients: (6.54%)
- SAQ 4th question, 1-3 times per day: number of patients: 114
- SAQ 4th question, <1 time per week: % of patients: (9.58%)
- SAQ 4th question, <1 time per week: number of patients: 167
- SAQ 4th question, Not used: % of patients: (53.10%)
- SAQ 4th question, Not used: number of patients: 926
- SAQ 4th question, ≧3 times per week: % of patients: (13.19%)
- SAQ 4th question, ≧3 times per week: number of patients: 230
- SAQ 4th question, ≧4 times per day: % of patients: (0.06%)
- SAQ 4th question, ≧4 times per day: number of patients: 1
- SAQ 5th question, Few: % of patients: (21.56%)
- SAQ 5th question, Few: number of patients: 376
- SAQ 5th question, Mild: % of patients: (28.90%)
- SAQ 5th question, Mild: number of patients: 504
- SAQ 5th question, Moderate: % of patients: (17.43%)
- SAQ 5th question, Moderate: number of patients: 304
- SAQ 5th question, None: % of patients: (26.32%)
- SAQ 5th question, None: number of patients: 459
- SAQ 5th question, Not medicated by doctors: % of patients: (3.38%)
- SAQ 5th question, Not medicated by doctors: number of patients: 59
- SAQ 5th question, Severe: % of patients: (2.41%)
- SAQ 5th question, Severe: number of patients: 42
- SAQ 6th question, Dissatisfied: % of patients: (0.46%)
- SAQ 6th question, Dissatisfied: number of patients: 8
- SAQ 6th question, Highly consent: % of patients: (18.00%)
- SAQ 6th question, Highly consent: number of patients: 314
- SAQ 6th question, Mostly dissatisfied: % of patients: (4.01%)
- SAQ 6th question, Mostly dissatisfied: number of patients: 70
- SAQ 6th question, Mostly satisfied: % of patients: (49.14%)
- SAQ 6th question, Mostly satisfied: number of patients: 857
- SAQ 6th question, Partly satisfied: % of patients: (28.38%)
- SAQ 6th question, Partly satisfied: number of patients: 495
- SAQ 7th question, Dissatisfied: % of patients: (0.17%)
- SAQ 7th question, Dissatisfied: number of patients: 3
- SAQ 7th question, Highly satisfied: % of patients: (23.31%)
- SAQ 7th question, Highly satisfied: number of patients: 406
- SAQ 7th question, Mostly dissatisfied: % of patients: (3.10%)
- SAQ 7th question, Mostly dissatisfied: number of patients: 54
- SAQ 7th question, Mostly satisfied: % of patients: (49.94%)
- SAQ 7th question, Mostly satisfied: number of patients: 870
- SAQ 7th question, Partly satisfied: % of patients: (23.48%)
- SAQ 7th question, Partly satisfied: number of patients: 409
- SAQ Question 1-1 Mildly limited, number of patients: 24
- SAQ Question 1-1 Mildly limited, percent of patients: (1.38%)
- SAQ Question 1-1 Moderately limited, number of patients: 11
- SAQ Question 1-1 Moderately limited, percent of patients: (0.63%)
- SAQ Question 1-1 Not limited, number of patients: 1607
- SAQ Question 1-1 Not limited, percent of patients: (92.20%)
- SAQ Question 1-1 Other reasons, number of patients: 4
- SAQ Question 1-1 Other reasons, percent of patients: (0.23%)
- SAQ Question 1-1 Severely limited, number of patients: 2
- SAQ Question 1-1 Severely limited, percent of patients: (0.11%)
- SAQ Question 1-1 Slightly limited, number of patients: 95
- SAQ Question 1-1 Slightly limited, percent of patients: (5.45%)
- SAQ Question 1-2 Mildly limited, number of patients: 32
- SAQ Question 1-2 Mildly limited, percent of patients: (1.84%)
